{"source": "patent EP0432183B1", "about": "“NEW CITYDIN-5'-DIPHOSPHATE ALKANOLS AND GLYCEROLS, A PROCESS FOR PREPARING THEM AND THEIR USE” (Clarion Pharmaceuticals, Inc., priority 1988, dated 1990)", "test_system": "Ehrlich Ascites-Tumorzellen", "test": "Concentration-dependent growth inhibition of Ehrlich ascites tumour cells (antiproliferative effect)", "type": "cell-based", "conditions": "Wachstumshemmung, read-out: Hemmung (%); for inhibition at 3 µM: Konzentration 3 μmolar; for inhibition at 10 µM: Konzentration 10 μmolar; for inhibition at 30 µM: Konzentration 30 μmolar; for inhibition at 100 µM: Konzentration 100 μmolar", "from_the_text": "Zur Bestimmung der cytostatischen Wirkung wurde die antiproliferative Wirkung bei Ehrlich-Ascites Tumorzellen untersucht. Dabei zeigte sich, daß die erfindungsgemäßen Verbindungen ausgezeichnete cytostatische Wirkung aufweisen. Sie können daher allein oder in Mischung mit anderen Wirksubstanzen in Form üblicher galenischer Zubereitungen als Cytostatika oder Virustatika eingesetzt werden.\nKonzentrationsabhängige Wachstumshemmung von Ehrlich Ascites-Tumorzellen.", "data": [{"smiles": "CCCCCCCCCCCCCCCCOP(=O)(O)OP(=O)(O)OC[C@H]1O[C@@H](n2ccc(N)nc2=O)[C@H](O)[C@@H]1O", "note": "[Bsp. 1, Cytidin-5'-diphosphat-hexadekanol]", "values": [{"measurement": "inhibition at 3 µM", "result": 12, "unit": "%"}, {"measurement": "inhibition at 10 µM", "result": 19, "unit": "%"}, {"measurement": "inhibition at 30 µM", "result": 46, "unit": "%"}, {"measurement": "inhibition at 100 µM", "result": 31, "unit": "%"}]}, {"smiles": "CCCCCCCCCCCCCCCCOCC(COP(=O)(O)OP(=O)(O)OC[C@H]1O[C@@H](n2ccc(N)nc2=O)[C@H](O)[C@@H]1O)OCC(F)(F)F", "note": "(stereo partly shown) [Bsp. 2, Cytidin-5'-diphosphat-1-0-hexadecyl-2-0-(2,2,2-trifluorethyl)glycerol]", "values": [{"measurement": "inhibition at 3 µM", "result": 9.5, "unit": "%"}, {"measurement": "inhibition at 10 µM", "result": 30, "unit": "%"}, {"measurement": "inhibition at 30 µM", "result": 86, "unit": "%"}, {"measurement": "inhibition at 100 µM", "result": 100, "unit": "%"}]}, {"smiles": "CCCCCCCCCCCCCCCCOCC(CCl)OP(=O)(O)OP(=O)(O)OC[C@H]1O[C@@H](n2ccc(N)nc2=O)[C@H](O)[C@@H]1O", "note": "(stereo partly shown) [Bsp. 3, Cytidin-5'-diphosphat-3-chlor-3-desoxy-1-0-hexadecylglycerol]", "values": [{"measurement": "inhibition at 3 µM", "result": 12, "unit": "%"}, {"measurement": "inhibition at 10 µM", "result": 17, "unit": "%"}, {"measurement": "inhibition at 30 µM", "result": 29, "unit": "%"}, {"measurement": "inhibition at 100 µM", "result": 69, "unit": "%"}]}, {"smiles": "CCCCCCCCCCCCCCCCOCC(Cl)COP(=O)(O)OP(=O)(O)OC[C@H]1O[C@@H](n2ccc(N)nc2=O)[C@H](O)[C@@H]1O", "note": "(stereo partly shown) [Bsp. 4, Cytidin-5'-diphosphat-2-chlor-2-desoxy-1-0-hexadecylglycerol]", "values": [{"measurement": "inhibition at 3 µM", "result": 18, "unit": "%"}, {"measurement": "inhibition at 10 µM", "result": 38, "unit": "%"}, {"measurement": "inhibition at 30 µM", "result": 67, "unit": "%"}, {"measurement": "inhibition at 100 µM", "result": 94, "unit": "%"}]}]}
